Tested on: naive CD4 T cells
Assay: Differentiation induction of naive CD4 T cells (DP8α induction)
Type: cell-based, human
Conditions: for effect on the frequency of DP8α cells: short chain fatty acid added to the induction culture
Protocol: Naive CD4 T cells are obtained from PBMC or PBL using the EasySep negative selection kit for naive CD4 T cells ([…] technologies).
Monocytes are isolated from PBMC using the CD14 microbeads positive selection kit of Miltenyi.
Immature dendritic cells (iDC) are prepared from monocytes (CD14+) cultured for 3 days with IL-4 (200 IU/ml) and GM-CSF (1000 IU/ml). Said cells are also called mo-iDC (monocyte-derived immature dendritic cells).
Immature DC are co-cultured for a night with thawed F. prausnitzii bacteria at 1:1 ratio in the presence or not of butyrate. The iDC are then added to naive CD4 cells for 5 days in the presence of IL-2.
Alternatively, butyrate is added later, at the same time as naive CD4 T cell.
DP8α induction is measured by a labeling with CD3-PE (phycoerythrin), CD4-FITC, CD8-APC (allophycocyanin) antibodies. The results are compared with those obtained with unstimulated CD4 T cells, CD4 T cells stimulated by iDC alone and CD4 T cells stimulated by iDC loaded with E. coli.

Structure (SMILES)	effect on the frequency of DP8α cells	fraction of naive CD4 T cells that acquire the DP8α phenotype (mean) (butyrate 0.145 mM added to iDC loaded with F. prausnitzii)
CCC(=O)O [propionate]	no or few effect	
CCCC(=O)O [butyrate]		6%
CC(=O)O [acetate]	no or few effect	
